Experimental data taken from patent US20140096445A1, “METHOD OF CULTIVATION IN WATER DEFICIT CONDITIONS” (SYNGENTA PARTICIPATIONS AG, priority 2011, published 2014).
Marks after values point to notes of the source that are not given here.

Experiments:
Assay type in all cases: in vivo
[1] = system: corn; experiment: SDI split plot field study, 113 day maturity corn hybrid, Examples 13-14; settings: 50% irrigated deficit
Procedure: A randomized complete block (split plot) study using Subsurface Drip Irrigation (SDI) was conducted on a deep silt loam soil using a 113 day maturity corn hybrid. This trial was conducted to quantify the impact of treatments on grain yield and water productivity of corn under limited (deficit) and fully-irrigated setting. The study utilized a subsurface drip irrigation (SDI) system with a nominal dripline flowrate of 0.25 gpm/100 ft for a 5-ft dripline spacing and 24-inch emitter spacing, installed at a depth of 16-18 inches. Irrigation control panels, chemical injection pumps, and filters were housed at the irrigation well house to manage irrigation and chemigation events.
The field study was set up as a randomized complete plot design with three replications on silt loam soil.
Each plot was 8 rows wide (6.1 meters) by 15 meters long. Soil water status was monitored throughout the growing season using soil moisture sensors. Corn seed was planted with a precision planter at a depth of 2 inches and rows spaced at 30 inches. The planting population was 30,000 seeds per acre. Testing parameters, and irrigation levels were conducted according to the Kansas State University experimental procedure [see, e.g.,: (1) Lamm, F. R., A. J. Schlegel, and G. A. Clark. 2003. Development of a Best Management Practice for Nitrogen Fertigation of Corn Using SDI. Appl. Engr in Agric. and (2) Lamm, F. R., H. L. Manges, L. R. Stone, A. H. Khan, and D. H. Rogers. 1995. Water requirement of subsurface drip-irrigated corn in northwest Kansas. Trans. ASAE, 38(2):441-448.]. Moisture levels, irrigation levels, evapotranspiration, and plant health were measured throughout the growing season. Climatic variables were measured (air temperature, rainfall, solar and net radiation, relative humidity, rainfall, wind speed and direction) throughout the season.
Irrigation for the fully irrigated treatments was scheduled according to need by a climatic water budget using calculated evapotranspiration as a withdrawal and with rainfall and irrigation as deposits. Irrigation amounts for each event for the fully irrigated plots were generally 0.5 inches for each event. The deficit irrigation treatments were scheduled at approximately 50% of the fully irrigated plots (5.9 inches/acre vs. 13.55 inches of water/acre). Volumetric soil water content was measured in one-foot increments to a depth of 8 ft on an approximately weekly basis throughout the crop season to determine total water use. Crop water use was calculated as the sum of irrigation, precipitation and changes in soil water between the initial and final soil water sampling dates. Water productivity was calculated as the crop yield divided by the seasonal water use. Maintenance crop protection products were applied as needed to manage weeds and pests throughout the season for all treatments including the control. Moddus (trinexapac-ethyl) was foliar-applied (tractor mounted sprayer) twice at a rate of 250 gai/ha at approximately the V3+V7 stages of the corn. Azoxystrobin (Quadris) was applied twice via drip irrigation at a rate of 0.8 fl. oz/1000 linear ft (261 gai/ha) at approximately V6 & R1 stages of the corn. Crop yield from each replication was recorded after harvest and adjusted to 15% moisture content. Corn yield components of crop grain yield, plants/area, ears/plant, and kernel weight were measured by hand harvesting a representative sample (20 feet long for one crop row near the center of each subplot).

[2] = system: corn; experiment: Greenhouse sub-surface chemigation, yield and root architecture under deficit water, Examples 20-23; settings: for Yield (% difference from UTC) / Relative number of fine roots (% difference from UTC): sub-surface chemigation at V3/V4, maximum labeled rates, 50% plant-available water; for Relative number of fine roots (% difference from UTC): within 2 weeks of harvest; for Yield compared with the control, statistical statement: sub-surface chemigation, abiotic stress, P values <0.001 at the 95th percentile confidence interval
From the text: In this experiment, standardized growth conditions were applied across all corn treatments including: soil-water availability, soil texture and composition, soil chemical and physical properties, meteorological and environmental parameters, and plant nutrition in a greenhouse. No indication of plant disease or pest damage was observed over the course of the study and no pest management program was necessary. A homogeneous sand-organic matter soil mixture (0.18% organic matter) was used as the growth medium in 55-gal containers. These containers were used as a weighing lysimeter, where daily changes in system weight were used to calculate plant transpiration. Four corn plants were grown in each 55-gal container. Three 55-gal containers (12 plants total) made up each treatment. All irrigation and chemical treatments were applied via sub-surface irrigation. Chemical treatments consisted of: azoxystrobin (Quadris), paclobutrazol (Trimmit), trinexapac-ethyl (Moddus), and propiconazole (Tilt) at maximum labeled rates.
Corn plants were grown from seed and transplanted in the 55-gal drums approximately 14 days after planting. Uniform adequate irrigation was applied up to growth stage V3/V4 to ensure plant establishment. Chemical treatment applications were applied at growth stage V3/V4 via sub-surface chemigation. At stage V3/V4, irrigation was decreased to replicate deficit water conditions across all treatments for the remainder of the study period. Irrigation was managed daily to maintain 50% plant-available water. Visual signs of abiotic plant stress were observed approximately 30 days after chemical application. All corn plants were grown to yield and cobs were harvested when kernels were uniformly dry (15% moisture content). Root architecture, specifically relative number of fine roots, was measured at within 2 weeks of harvest using a digital imaging technique. Fine roots are related to water uptake productivity, which is directly tied to the ability of the plant to access soil-water under stress.

[3] = system: corn; experiment: SDI chemigation field study on grain yield under rainfed conditions, Examples 17-19; settings: for Yield: optimum nitrogen rate 200 lbs. N/acre
Procedure: A chemigation study using Subsurface Drip Irrigation (SDI) was conducted to quantify the impact of treatment effects on grain yield under rainfed conditions. The field study was set up as a randomized complete plot design (split plot) with three replications on silt loam soil. Each plot was 8 rows wide (6.1 meters) by 34 meters long. Soil water status was monitored on an hourly basis every 30 cm up to 1.2 meters throughout the growing season using soil moisture sensors. Corn seed was planted with a precision planter at a depth of 2 inches and rows spaced at 30 inches. The planting population was 30,000 seeds per acre. Testing parameters and harvesting were conducted according to the University of Nebraska experimental procedure (see, e.g.,: Irmak, S, D. Z. Haman, and R. Bastug. Determination of Crop Water Stress Index for irrigation Timing and Yield Estimation of Corn. 2000. Agronomy Journal. 92:1221-1227). Moisture levels, evapotranspiration, and plant health were measured throughout the growing season. All microclimatic variables were measured (air temperature, rainfall, solar and net radiation, relative humidity, rainfall, wind speed and direction) so that the researcher could quantify the range of the microclimatic conditions under which this research was conducted to define the boundaries of experimental conditions.
No irrigation was applied to rainfed plots. […] Maintenance crop protection products were applied as needed to manage weeds and pests throughout the season for all treatments including the control. Azoxystrobin (Quadris) was applied twice via drip irrigation at a rate of 0.8 fl. oz/1000 linear ft (261 gai/ha) or by foliar application (tractor mounted sprayer) at 14 fl. oz./acre (261 gai/ha) at approximately the V6 & R1 stages of the corn. Moddus (trinexapac-ethyl) was foliar-applied (tractor mounted sprayer) once at a rate of 250 gai/ha at approximately the V7 stage of the corn. Crop yield from each replication was recorded after harvest and adjusted to 15.5% moisture content.

[4] = 250 gai/ha, foliar applied once (V7), 0% irrigated

| Compound | Yield ([1]; 261 gai/ha, SDI chemigated twice (V6 & R1)) | % Yield Increase by Product over Untr./50% irr. ([1]; 261 gai/ha, SDI chemigated) | % increase in Water Productivity by Product over 50% irr. ([1]; 261 gai/ha, SDI chemigated) | Water Prodctivity (IWUE) ([1]; 261 gai/ha, SDI chemigated) | Yield (% difference from UTC) [2] | Relative number of fine roots (% difference from UTC) [2] | Yield compared with the control, statistical statement [2] | Yield ([3]; 261 gai/ha, SDI chemigated (V6 & R1), 0% irrigated dryland/rainfed) [Bu./acre] | % Yield Increase by Product over Untr./0% irr. ([3]; 261 gai/ha, SDI chemigated, 0% irrigated dryland/rainfed) | Yield ([3]; 261 gai/ha, foliar applied (V6 & R1), 0% irrigated dryland/rainfed) [Bu./acre] | % Yield Increase by Product over Untr./0% irr. ([3]; 261 gai/ha, foliar applied, 0% irrigated dryland/rainfed) | Yield ([1]; 250 gai/ha, foliar-applied twice (V3+V7)) [Bu./acre] | % Yield Increase by Product over Untr./50% irr. ([1]; 250 gai/ha, foliar-applied) | Water Prodctivity (IWUE) ([1]; 250 gai/ha, foliar-applied) | % Yield Increase by Product over Untr./0% irr. [3, 4] | Yield [3, 4] [Bu./acre] |
| --- | --- | --- | --- | --- | --- | --- | --- | --- | --- | --- | --- | --- | --- | --- | --- | --- |
| CO/C=C(/C(=O)OC)c1ccccc1Oc1cc(Oc2ccccc2C#N)ncn1 [Azoxystrobin, azoxystrobin] | 212^ Bu./acre | +16% Incr. over | +18% Incr. | 426 pounds of corn per inch of water applied | 12.5† % | 37.3† % | statistically different from the control | 145.4 | +7% incr over Untr./0% irr. | 151.1 | +11% incr over Untr./0% irr. | – | – | – | – | – |
| CCOC(=O)C1CC(=O)C(=C(O)C2CC2)C(=O)C1 (stereo not shown) [TXP, trinexapac-ethyl] | – | – | – | – | 15.6† % | 34.3† % | statistically different from the control | – | – | – | – | 235 | +28% Incr. over | 462 pounds of corn per inch of water applied | +4% incr over Untr./0% irr. | 141.9 |
